The results in this text go back to the supplement of paper PMC11208160.
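Note: IS621 bridge recombinase in Escherichia coli cells against a fixed T5 target plasmid.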

The series can be described thus: recombinant UMI read abundance after kanamycin selection (control-corrected) (log10(CPM+1)); higher = more efficient recombination; extreme values may be limits of the assay; sequences stand for … in AGTGCAGAGAAAATCGGCCAGTTTTCTCTGCCTGCAGTCCGCATGCCGTGGGACCCCTTGGGTTCTAACCTGTTGCCTAGATTTATGCAGCGGACTGCCTTTCTCCCAAAGTGATAAACCGG…AGGTTGGTTTCACT; site = the 11-nt donor. The procedure, abridged:
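Values, expressed as log10(CPM+1), derive from recombinant UMI counts converted to CPM, averaged across replicates and scaled by control-derived factors. Plating was with IPTG (0.07 mM) plus kanamycin or unselected, two replicates each. The screen pooled donor and donor-binding-loop pairs for the IS621 bridge recombinase in Escherichia coli.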
For “TCAGAGACATGGACCGGTTTTCCCGGTAATCCGTATTTGCC (site TCAGAGACTCG)”, the “recombinant UMI read abundance (log10)” value came out at 0.683.

On to “TCAGAGACATGGACCGGTTTTCCCGGTAATCCGTATTTGCC (site TCAGAGACTGG)”, for which the “recombinant UMI read abundance (log10)” value is 1.58.

“TCAGAGACATGGACCGGTTTTCCCGGTAATCCGTATTTGCC (site TCAGAGACTTG)”: the “recombinant UMI read abundance (log10)” value turned out to be 1.62.

For “TCAGAGACATGGACCGGTTTTCCCGGTAATCCGTATTTGCT (site TCAGAGACTAG)”, the “recombinant UMI read abundance (log10)” value came to 2.38.

As to “TCAGAGACATGGACCGGTTTTCCCGGTAATCCGTATTTGCT (site TCAGAGACTCG)”, the “recombinant UMI read abundance (log10)” value is 0.601.

For “TCAGAGACATGGACCGGTTTTCCCGGTAATCCGTATTTGCT (site TCAGAGACTGG)”, the “recombinant UMI read abundance (log10)” value is 2.21.

On to “TCAGAGACATGGACCGGTTTTCCCGGTAATCCGTATTTGCT (site TCAGAGACTTG)”, for which the “recombinant UMI read abundance (log10)” value worked out at 0.868.

For “TCAGAGACATGGACCGGTTTTCCCGGTAATCCGTATTTGGG (site TCAGAGACTCA)”, the “recombinant UMI read abundance (log10)” value worked out at 0.0103.

For the sequence “TCAGAGACATGGACCGGTTTTCCCGGTAATCCGTATTTGGG (site TCAGAGACTCC)”, the “recombinant UMI read abundance (log10)” value is 0.

“TCAGAGACATGGACCGGTTTTCCCGGTAATCCGTATTTGGG (site TCAGAGACTCG)”: the “recombinant UMI read abundance (log10)” value came out at 0.

As to “TCAGAGACATGGACCGGTTTTCCCGGTAATCCGTATTTGGG (site TCAGAGACTCT)”, the “recombinant UMI read abundance (log10)” value was found to be 0.0246.

Take “TCAGATTCATGGACCGGTTTTCCCGGTAATCCGTATTTGGA (site TCAGATTCTTC)”: the “recombinant UMI read abundance (log10)” value stood at 1.34.

With “TCAGGGACATGGACCGGTTTTCCCGGTAATCCGTATTTGGG (site TCAGGGACTCC)”, the “recombinant UMI read abundance (log10)” value was found to be 0.00795.

Turning to “TCAGGTTCATGGACCGGTTTTCCCGGTAATCCGTATTTGCT (site TCAGGTTCTAG)”, the “recombinant UMI read abundance (log10)” value is 1.27.

Take “TCAGTAGCATGGACCGGTTTTCCCGGTAATCCGTATTTGCA (site ACAGTATCTTG)”: the “recombinant UMI read abundance (log10)” value was 2.25.

Consider “TCAGTAGCATGGACCGGTTTTCCCGGTAATCCGTATTTGCA (site TCAGTAGCTTG)”, for which the “recombinant UMI read abundance (log10)” value turned out to be 1.9.

Regarding “TCAGTCTCATGGACCGGTTTTCCCGGTAATCCGTATTTGAT (site TCAGTCTCTAT)”, the “recombinant UMI read abundance (log10)” value came to 2.42.

For the sequence “TCAGTGCCATGGACCGGTTTTCCCGGTAATCCGTATTTGCG (site TCAGTGCCTCG)”, the “recombinant UMI read abundance (log10)” value was 0.0165.

Take “TCATACCCATGGACCGGTTTTCCCGGTAATCCGTATTTGCA (site TCATACACTTG)”: the “recombinant UMI read abundance (log10)” value amounted to 0.

In the case of “TCATACCCATGGACCGGTTTTCCCGGTAATCCGTATTTGCA (site TCATACCCTTG)”, the “recombinant UMI read abundance (log10)” value was determined as 0.0304.

As for “TCATACCCATGGACCGGTTTTCCCGGTAATCCGTATTTGCA (site TCATACGCTTG)”, the “recombinant UMI read abundance (log10)” value was determined as 0.

Consider “TCATACCCATGGACCGGTTTTCCCGGTAATCCGTATTTGCA (site TCATACTCTTG)”, for which the “recombinant UMI read abundance (log10)” value amounted to 0.995.

For the sequence “TCATACGCATGGACCGGTTTTCCCGGTAATCCGTATTTGCA (site TCATACACTTG)”, the “recombinant UMI read abundance (log10)” value stood at 1.03.

Turning to “TCATACGCATGGACCGGTTTTCCCGGTAATCCGTATTTGCA (site TCATACCCTTG)”, the “recombinant UMI read abundance (log10)” value worked out at 0.169.

For “TCATACGCATGGACCGGTTTTCCCGGTAATCCGTATTTGCA (site TCATACGCTTG)”, the “recombinant UMI read abundance (log10)” value was 2.25.

Consider “TCATACGCATGGACCGGTTTTCCCGGTAATCCGTATTTGCA (site TCATACTCTTG)”, for which the “recombinant UMI read abundance (log10)” value worked out at 0.604.

On to “TCATACTCATGGACCGGTTTTCCCGGTAATCCGTATTTGCA (site ACATACTCTTG)”, for which the “recombinant UMI read abundance (log10)” value stood at 1.34.

Regarding “TCATACTCATGGACCGGTTTTCCCGGTAATCCGTATTTGCA (site CCATACTCTTG)”, the “recombinant UMI read abundance (log10)” value was found to be 2.03.

As to “TCATACTCATGGACCGGTTTTCCCGGTAATCCGTATTTGCA (site GCATACTCTTG)”, the “recombinant UMI read abundance (log10)” value was found to be 1.3.

As to “TCATACTCATGGACCGGTTTTCCCGGTAATCCGTATTTGCA (site TAATACTCTTG)”, the “recombinant UMI read abundance (log10)” value was found to be 1.45.

Consider “TCATACTCATGGACCGGTTTTCCCGGTAATCCGTATTTGCA (site TCAAACTCTTG)”, for which the “recombinant UMI read abundance (log10)” value was 1.19.

“TCATACTCATGGACCGGTTTTCCCGGTAATCCGTATTTGCA (site TCACACTCTTG)”: the “recombinant UMI read abundance (log10)” value came out at 1.3.

With “TCATACTCATGGACCGGTTTTCCCGGTAATCCGTATTTGCA (site TCAGACTCTTG)”, the “recombinant UMI read abundance (log10)” value is 0.

For the sequence “TCATACTCATGGACCGGTTTTCCCGGTAATCCGTATTTGCA (site TCATAATCTTG)”, the “recombinant UMI read abundance (log10)” value is 0.464.

“TCATACTCATGGACCGGTTTTCCCGGTAATCCGTATTTGCA (site TCATACACTTG)”: the “recombinant UMI read abundance (log10)” value worked out at 0.64.

Consider “TCATACTCATGGACCGGTTTTCCCGGTAATCCGTATTTGCA (site TCATACCCTTG)”, for which the “recombinant UMI read abundance (log10)” value stood at 0.303.

For the sequence “TCATACTCATGGACCGGTTTTCCCGGTAATCCGTATTTGCA (site TCATACGCTTG)”, the “recombinant UMI read abundance (log10)” value came out at 0.00277.

On to “TCATACTCATGGACCGGTTTTCCCGGTAATCCGTATTTGCA (site TCATACTCTAG)”, for which the “recombinant UMI read abundance (log10)” value turned out to be 0.

Turning to “TCATACTCATGGACCGGTTTTCCCGGTAATCCGTATTTGCA (site TCATACTCTCG)”, the “recombinant UMI read abundance (log10)” value amounted to 0.514.

Consider “TCATACTCATGGACCGGTTTTCCCGGTAATCCGTATTTGCA (site TCATACTCTGG)”, for which the “recombinant UMI read abundance (log10)” value is 0.

Take “TCATACTCATGGACCGGTTTTCCCGGTAATCCGTATTTGCA (site TCATACTCTTA)”: the “recombinant UMI read abundance (log10)” value was 0.

With “TCATACTCATGGACCGGTTTTCCCGGTAATCCGTATTTGCA (site TCATACTCTTC)”, the “recombinant UMI read abundance (log10)” value amounted to 0.0158.

In the case of “TCATACTCATGGACCGGTTTTCCCGGTAATCCGTATTTGCA (site TCATACTCTTG)”, the “recombinant UMI read abundance (log10)” value came to 2.69.

On to “TCATACTCATGGACCGGTTTTCCCGGTAATCCGTATTTGCA (site TCATACTCTTT)”, for which the “recombinant UMI read abundance (log10)” value was 0.0879.

Regarding “TCATACTCATGGACCGGTTTTCCCGGTAATCCGTATTTGCA (site TCATAGTCTTG)”, the “recombinant UMI read abundance (log10)” value was 1.54.

Take “TCATACTCATGGACCGGTTTTCCCGGTAATCCGTATTTGCA (site TCATATTCTTG)”: the “recombinant UMI read abundance (log10)” value was 0.

For “TCATACTCATGGACCGGTTTTCCCGGTAATCCGTATTTGCA (site TCATCCTCTTG)”, the “recombinant UMI read abundance (log10)” value amounted to 0.111.

Consider “TCATACTCATGGACCGGTTTTCCCGGTAATCCGTATTTGCA (site TCATGCTCTTG)”, for which the “recombinant UMI read abundance (log10)” value turned out to be 0.

In the case of “TCATACTCATGGACCGGTTTTCCCGGTAATCCGTATTTGCA (site TCATTCTCTTG)”, the “recombinant UMI read abundance (log10)” value was 0.

On to “TCATACTCATGGACCGGTTTTCCCGGTAATCCGTATTTGCA (site TCCTACTCTTG)”, for which the “recombinant UMI read abundance (log10)” value worked out at 1.79.

Turning to “TCATACTCATGGACCGGTTTTCCCGGTAATCCGTATTTGCA (site TCGTACTCTTG)”, the “recombinant UMI read abundance (log10)” value is 2.35.

In the case of “TCATACTCATGGACCGGTTTTCCCGGTAATCCGTATTTGCA (site TCTTACTCTTG)”, the “recombinant UMI read abundance (log10)” value stood at 2.13.

As for “TCATACTCATGGACCGGTTTTCCCGGTAATCCGTATTTGCA (site TGATACTCTTG)”, the “recombinant UMI read abundance (log10)” value amounted to 1.78.

For “TCATACTCATGGACCGGTTTTCCCGGTAATCCGTATTTGCA (site TTATACTCTTG)”, the “recombinant UMI read abundance (log10)” value came out at 1.2.

With “TCATACTCATGGACCGGTTTTCCCGGTAATCCGTATTTGCC (site TCATACTCTAG)”, the “recombinant UMI read abundance (log10)” value was 1.07.

For the sequence “TCATACTCATGGACCGGTTTTCCCGGTAATCCGTATTTGCC (site TCATACTCTCG)”, the “recombinant UMI read abundance (log10)” value worked out at 0.

“TCATACTCATGGACCGGTTTTCCCGGTAATCCGTATTTGCC (site TCATACTCTGG)”: the “recombinant UMI read abundance (log10)” value was determined as 2.23.

For “TCATACTCATGGACCGGTTTTCCCGGTAATCCGTATTTGCC (site TCATACTCTTG)”, the “recombinant UMI read abundance (log10)” value is 0.

Turning to “TCATACTCATGGACCGGTTTTCCCGGTAATCCGTATTTGCT (site TCATACTCTAG)”, the “recombinant UMI read abundance (log10)” value was 2.47.

Turning to “TCATACTCATGGACCGGTTTTCCCGGTAATCCGTATTTGCT (site TCATACTCTCG)”, the “recombinant UMI read abundance (log10)” value was 0.

For the sequence “TCATACTCATGGACCGGTTTTCCCGGTAATCCGTATTTGCT (site TCATACTCTGG)”, the “recombinant UMI read abundance (log10)” value was found to be 0.

For the sequence “TCATACTCATGGACCGGTTTTCCCGGTAATCCGTATTTGCT (site TCATACTCTTG)”, the “recombinant UMI read abundance (log10)” value is 0.

In the case of “TCATATACATGGACCGGTTTTCCCGGTAATCCGTATTTGCA (site TCATATACTTG)”, the “recombinant UMI read abundance (log10)” value was found to be 0.743.

Consider “TCATATACATGGACCGGTTTTCCCGGTAATCCGTATTTGGA (site TCATATACTTC)”, for which the “recombinant UMI read abundance (log10)” value stood at 0.727.

For “TCATCGGCATGGACCGGTTTTCCCGGTAATCCGTATTTGAG (site TCATCGGCTCT)”, the “recombinant UMI read abundance (log10)” value amounted to 0.699.

Consider “TCATCTACATGGACCGGTTTTCCCGGTAATCCGTATTTGTG (site ACATCTACTCA)”, for which the “recombinant UMI read abundance (log10)” value was 0.0432.

For “TCATCTACATGGACCGGTTTTCCCGGTAATCCGTATTTGTG (site CCATCTACTCA)”, the “recombinant UMI read abundance (log10)” value came to 0.00835.

For the sequence “TCATCTACATGGACCGGTTTTCCCGGTAATCCGTATTTGTG (site GCATCTACTCA)”, the “recombinant UMI read abundance (log10)” value turned out to be 0.0109.
